Patent publication US20050079613A1, “Downregulation of cell surface glycoproteins by a family of human ubiquitin ligases” (Oregon Health & Science University, priority 2002, published 2005)

System: HLA-A2.1
Assay: Pulse-chase of HLA-A2.1 maturation and turnover in transfected HeLa cells
Assay type: cell-based, human
Conditions: for effect of inhibitor on degradation of HLA-A2.1 heavy chains: MARCH-IV and HLA-A2.1 co-transfected cells, concanamycin A 50 nM, lactacystin 20 μM
Procedure: Metabolic labeling, immunoprecipitation and Western blotting. HeLa cells were grown to 80% confluency in 100 mm tissue culture dishes and transfected as above. Cells were incubated in serum-free and methionine-free medium for 30 minutes, and metabolically labeled with ^35S-cysteine/^35S-methionine (250 μCi, Amersham) for the indicated time. After labeling, cells were washed twice with PBS and either lysed immediately in PBS containing 1% Triton X-100 and protease inhibitors (Roche, Indianapolis, Ind.), or the label was chased with excess (2 mM) unlabeled cysteine and methionine in the presence or absence of specific inhibitors for the indicated time. The cell lysates were precleared with protein A/G agarose beads and incubated with 3 μg of antibody for one hour and followed by two hours incubation with protein A/G beads. Immunoprecipated proteins were washed five times with 0.1% Triton X-100 in PBS. All samples were boiled in SDS buffer and analyzed by SDS-PAGE gel electrophoresis. Where indicated, samples were treated with Endoglycosidase H (Roche) according to manufacturer's instructions. Briefly, samples were initially denatured at 100° C. in 40 μl of 0.3% SDS, 150 mM 2-mercaptoethanol, 50 mM sodium acetate, pH 5.5 and incubated with 4 milli-Units of Endo H overnight at 37° C. All samples were boiled in SDS buffer and analyzed by SDS-PAGE gel electrophoresis. Gels were fixed, dried and exposed to Kodak BioMax MR film. Western blotting was accomplished using the WesternBreeze Chemiluminescent Detection System (Invitrogen) following Semi-dry transfer to PVDF membranes (Millipore, Bedford, Mass.).
To determine the ultimate fate of the MHC I molecules in the presence of MARCH-IV, the maturation and turnover of co-transfected HLA-A2.1 in pulse-chase experiments (FIG. 12B) was followed. In the absence of MARCH-IV, HLA-A2.1 molecules acquired Endo H resistance after 1 hour of chase indicating exit from the ER. […]

Structure (SMILES)	effect of inhibitor on degradation of HLA-A2.1 heavy chains	effect of inhibitor on HLA-A2.1 in the absence of MARCH-IV (cells without MARCH-IV)
C/C=C/[C@H]1O[C@@](O)([C@@H](C)[C@H](O)[C@H](C)[C@H]2OC(=O)/C(OC)=C/C(C)=C/[C@@H](C)[C@@H](O)[C@@H](CC)[C@@H](O)[C@H](C)C/C(C)=C/C=C/[C@@H]2OC)C[C@@H](O[C@H]2C[C@@H](O)[C@H](OC(N)=O)[C@@H](C)O2)[C@@H]1C [concanamycin A]	delayed the degradation of HLA-A2.1	no effect
CC(=O)N[C@@H](CSC(=O)[C@]1([C@@H](O)C(C)C)NC(=O)[C@H](C)[C@@H]1O)C(=O)O [lactacystin]	did not increase recovery of HLA-A2.1 heavy chains	–
